Tests used:
sedge, umbrella = experiment: Test B flooded paddy test; assay type: in vivo, Cyperus difformis; settings: 250 g ai/ha, Flood; scale of 0 to 100 where 0 is no effect and 100 is complete control
In short: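 Visual ratings from 0, meaning no effect, up to 100, meaning complete control, were made by comparison with untreated controls 13 to 15 days after treatment. Test compounds went straight into floodwater standing 3 cm over the soil of pots holding 2-leaf seedlings.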

ragweed = experiment: Test C pre-/postemergence herbicide test; assay type: in vivo, Ambrosia elatior
In short: (§1)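 Herbicidal effect was judged by eye 13 to 15 days after treatment in the greenhouse, using a 0–100 scale against controls. Chemicals in a non-phytotoxic solvent with surfactant were sprayed onto planted loam/sand soil or onto plants 2 to 18 cm tall in a peat-based growing medium.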

crabgrass, large = experiment: Test C pre-/postemergence herbicide test; assay type: in vivo, Digitaria sanguinalis
In short: as §1

nutsedge, yellow = experiment: Test C pre-/postemergence herbicide test; assay type: in vivo, Cyperus esculentus
In short: as §1

johnsongrass = experiment: Test C pre-/postemergence herbicide test; assay type: in vivo, Sorghum halepense
In short: as §1

giant foxtail = experiment: Test A pre-/postemergence herbicide test; assay type: in vivo, Setaria faberii
In short: (§2)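 Both application timings used compounds in a non-phytotoxic solvent plus surfactant. Pre-emergence: soil sprayed directly after seeding into loam/sand. Post-emergence: foliage of 2–10 cm seedlings (1–2 leaves) sprayed. Injury rated ~10 days later, 0–100.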

wheat = experiment: Test A pre-/postemergence herbicide test; assay type: in vivo, Triticum aestivum
In short: as §2

blackgrass = experiment: Test C pre-/postemergence herbicide test; assay type: in vivo, Alopecurus myosuroides
In short: as §1

foxtail, giant = experiment: Test C pre-/postemergence herbicide test; assay type: in vivo, Setaria faberii
In short: as §1

pigweed = experiment: Test A pre-/postemergence herbicide test; assay type: in vivo, Amaranthus retroflexus
In short: as §2

ryegrass, Italian = experiment: Test C pre-/postemergence herbicide test; assay type: in vivo, Lolium multiflorum
In short: as §1

[1] = Postemergence, 31 g ai/ha, scale 0 (no effect) to 100 (complete control)
[2] = Postemergence, 62 g ai/ha, scale 0 to 100 (0 no effect, 100 complete control)
[3] = Postemergence, 125 g ai/ha, scale 0 to 100 (0 no effect, 100 complete control)
[4] = Postemergence, 250 g ai/ha, scale 0 to 100 (0 no effect, 100 complete control)
[5] = Preemergence, 62 g ai/ha, scale 0 to 100
[6] = Preemergence, 125 g ai/ha, scale 0 to 100 (0 no effect, 100 complete control)
[7] = Preemergence, 31 g ai/ha, scale 0 to 100 (0 no effect, 100 complete control)
[8] = Preemergence, 250 g ai/ha, scale 0 to 100 (0 no effect, 100 complete control)
[9] = Postemergence, 125 g ai/ha, 0 to 100 scale, 0 no effect, 100 complete control
[10] = Postemergence, 500 g ai/ha, 0 to 100 scale (0 no effect, 100 complete control)
[11] = Preemergence, 125 g ai/ha, visual rating on 0 to 100 scale (0 no effect, 100 complete control)
[12] = preemergence, 500 g ai/ha, 0 to 100 scale

O=C1NCC(c2ccc(Cl)c(F)c2)C1C(=O)Nc1cccc(F)c1F (stereo not shown) [Compound 52]
Plant response rating, Sedge, Umbrella (sedge, umbrella): 85 | Plant response rating, Ragweed (ragweed; [1]): 10 | Plant response rating, Ragweed (ragweed; [2]): 10 | Plant response rating, Ragweed (ragweed; [3]): 50 | Plant response rating, Ragweed (ragweed; [4]): 55 | Plant response rating, Ragweed (ragweed; [5]): 0 | Plant response rating, Ragweed (ragweed; [6]): 0 | Plant response rating, Crabgrass, Large (crabgrass, large; [1]): 50 | Plant response rating, Crabgrass, Large (crabgrass, large; [2]): 55 | Plant response rating, Crabgrass, Large (crabgrass, large; [3]): 55 | Plant response rating, Crabgrass, Large (crabgrass, large; [4]): 75 | Plant response rating, Crabgrass, Large (crabgrass, large; [5]): 90 | Plant response rating, Crabgrass, Large (crabgrass, large; [6]): 90 | Crabgrass, Large plant response rating (crabgrass, large; [7]): 80 | Plant response rating, Crabgrass, Large (crabgrass, large; [8]): 95 | Plant response rating, Nutsedge, Yellow (nutsedge, yellow; [1]): 10 | Plant response rating, Nutsedge, Yellow (nutsedge, yellow; [2]): 10 | Plant response rating, Nutsedge, Yellow (nutsedge, yellow; [3]): 10 | Plant response rating, Nutsedge, Yellow (nutsedge, yellow; [4]): 10 | Plant response rating, Nutsedge, Yellow (nutsedge, yellow; [5]): 25 | Plant response rating, Nutsedge, Yellow (nutsedge, yellow; [6]): 25 | Plant response rating, Johnsongrass (johnsongrass; [1]): 0 | Plant response rating, Johnsongrass (johnsongrass; [2]): 0 | Plant response rating, Johnsongrass (johnsongrass; [3]): 0 | Plant response rating, Johnsongrass (johnsongrass; [4]): 0 | Plant response rating, Johnsongrass (johnsongrass; [5]): 0 | Plant response rating, Johnsongrass (johnsongrass; [6]): 10 | Plant response rating, Foxtail, Giant (giant foxtail; [9]): 80 | Plant response rating, Foxtail, Giant (giant foxtail; [10]): 80 | Foxtail, Giant plant response rating (giant foxtail; [11]): 80 | Plant response rating, Foxtail, Giant (giant foxtail; [12]): 90 | Plant response rating, Wheat (wheat; [9]): 0 | Plant response rating, Wheat (wheat; [10]): 30 | Wheat plant response rating (wheat; [11]): 0 | Plant response rating, Wheat (wheat; [12]): 0 | Plant response rating, Blackgrass (blackgrass; [1]): 0 | Plant response rating, Blackgrass (blackgrass; [2]): 0 | Plant response rating, Blackgrass (blackgrass; [3]): 0 | Plant response rating, Blackgrass (blackgrass; [4]): 0 | Plant response rating, Blackgrass (blackgrass; [5]): 0 | Plant response rating, Blackgrass (blackgrass; [6]): 0 | Blackgrass plant response rating (blackgrass; [7]): 0 | Plant response rating, Blackgrass (blackgrass; [8]): 0 | Plant response rating, Foxtail, Giant (foxtail, giant; [1]): 0 | Plant response rating, Foxtail, Giant (foxtail, giant; [2]): 0 | Plant response rating, Foxtail, Giant (foxtail, giant; [3]): 0 | Plant response rating, Foxtail, Giant (foxtail, giant; [4]): 25 | Plant response rating, Foxtail, Giant (foxtail, giant; [5]): 80 | Plant response rating, Foxtail, Giant (foxtail, giant; [6]): 80 | Foxtail, Giant plant response rating (foxtail, giant; [7]): 55 | Plant response rating, Foxtail, Giant (foxtail, giant; [8]): 85 | Plant response rating, Pigweed (pigweed; [9]): 0 | Plant response rating, Pigweed (pigweed; [10]): 40 | Pigweed plant response rating (pigweed; [11]): 0 | Plant response rating, Pigweed (pigweed; [12]): 40 | Plant response rating, Ryegrass, Italian (ryegrass, Italian; [1]): 0 | Plant response rating, Ryegrass, Italian (ryegrass, Italian; [2]): 0 | Plant response rating, Ryegrass, Italian (ryegrass, Italian; [3]): 0 | Plant response rating, Ryegrass, Italian (ryegrass, Italian; [4]): 0 | Plant response rating, Ryegrass, Italian (ryegrass, Italian; [5]): 0 | Plant response rating, Ryegrass, Italian (ryegrass, Italian; [6]): 0
